Read-outs that look alike come from different tables or passages of the source.
Molecular target: T1, MEK1^CA (human GST-MEK1, constitutively active, Ser218Asp and Ser222Asp) (Homo sapiens, UniProt Q02750, S218D/S222D)
T1 construct: GST; made in house; host or cells: Escherichia coli
Experiment: MEK1 enzymatic activity assay (MEK1^CA / ERK2 / MBP, [γ-33P]ATP incorporation)
Type: biochemical
Excerpt: Materials and preparation of reagents: Human GST-MEK1 and the constitutively active allele GST-MEK1^CA (harboring the mutations Ser218Asp and Ser222Asp) were subcloned into the […] expression vector pGEM4Z (Promega, Madison, Wis.) from the wild type human MEK1 cDNA. GST-MEK1^CA was expressed in Escherichia coli and partially purified using Glutathione Sepharose 4B affinity resin (Amersham Pharmacia Biotech, Piscataway, N.J.). The ERK2 allele was subcloned from MAPK2/Erk2 cDNA (wild type) in pUSEamp (Upstate Biotechnology, Inc., Waltham, Mass.) into the vector pET21a (Novagen, Madison, Wis.) resulting in an N-terminal histidine-tagged mouse ERK2 allele. […] Myelin basic protein (MBP) was purchased from Gibco BRL (Rockville, Md.). EasyTides adenosine 5′-triphosphate (ATP) ([γ-^33P]) (NEN Perkin Elmer, Wellesley, Mass.) was the source of radiolabel for all kinase reactions. Activated Raf-1 (truncated) and activated MAPKinase 2/ERK2 were purchased from Upstate, Inc. (Lake Placid, N.Y.). 4-20% Criterion Precast gels were purchased from Bio-Rad (Hercules, Calif.).
A typical 25-microliter assay contained 0.002 nanomoles MEK1^CA, 0.02 nanomoles ERK2, 0.25 nanomoles MBP, 0.25 nanomoles unlabeled ATP, and 0.1 μCi [γ^33P] ATP. The screening assay essentially comprised four additions. Five μl of diluted compound were dispensed to 96-well assay plates. Ten μl of 2.5× enzyme cocktail (MEK1^CA and ERK2 only) were then added to each well followed by a pre-incubation for 30 minutes at ambient temperature. […] Finally, 100 μl of 10% trichloroacetic acid (TCA) were added and incubated for 30 minutes at room temperature to halt the reaction and precipitate radiolabeled protein products. Reaction products were harvested on glass fiber 96 well filter plates prewetted with water and 1% pyrophosphate. The filter plate was then washed 5 times with water. Water was displaced by absolute ethanol and the plate was allowed to air dry for 30 minutes at room temperature. A back seal was applied manually and 40 μl of scintillation cocktail were dispensed to each well. A top seal was applied and the plate was counted in the TopCount for two seconds per well.

[1] = Table 1, compounds of formula I, read-out: Avg IC50
[2] = Table 2, Ar1-A contains an amido or indolo group, read-out: IC 50

T1 sequence (Q02750 whole entry S218D/S222D): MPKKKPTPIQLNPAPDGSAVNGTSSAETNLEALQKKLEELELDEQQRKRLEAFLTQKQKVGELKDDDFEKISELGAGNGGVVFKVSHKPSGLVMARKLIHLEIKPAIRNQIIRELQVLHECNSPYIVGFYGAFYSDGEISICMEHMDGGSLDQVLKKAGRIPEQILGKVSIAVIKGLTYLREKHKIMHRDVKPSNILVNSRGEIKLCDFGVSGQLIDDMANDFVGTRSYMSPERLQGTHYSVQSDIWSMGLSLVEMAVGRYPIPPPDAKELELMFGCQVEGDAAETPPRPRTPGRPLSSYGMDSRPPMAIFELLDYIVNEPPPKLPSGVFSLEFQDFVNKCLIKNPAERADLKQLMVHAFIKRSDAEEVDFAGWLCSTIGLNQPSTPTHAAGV

| Structure (SMILES) | IC50 [1] [nM] | IC50 [2] [nM] | other results |
| --- | --- | --- | --- |
| N=C(NCc1ccccc1)c1c(O)nsc1Nc1ccc(C(=O)c2ccccc2)cc1 | – | – | IC50 (Table 4, R' is (CH2)1 or 2-G, read-out: IC50): 100 to 500 nM |
| CNC(=N)c1c(O)nsc1Nc1ccc(C)cc1 [Cpd 1] | 100 to 500 | – | – |
| Cc1ccc(Nc2snc(O)c2C(=N)NC2CCCC2)cc1 [Cpd 2] | 100 to 500 | – | – |
| Cc1ccc(Nc2snc(O)c2/C(N)=N/O)cc1 [Cpd 3] | > 500 | – | – |
| Cc1ccc(Nc2snc(O)c2C(=N)NCCN2CCOCC2)cc1 [Cpd 4] | 100 to 500 | – | – |
| Cc1ccc(Nc2snc(O)c2C(=N)NN2CCOCC2)cc1 [Cpd 5] | 100 to 500 | – | – |
| N=C(NN1CCOCC1)c1c(O)nsc1Nc1ccc(Oc2ccccc2)cc1 [Cpd 6] | 1 to 100 | – | – |
| Cc1ccc(Nc2snc(O)c2C(=N)NN2CCCCC2)cc1 [Cpd 7] | 100 to 500 | – | – |
| Cc1ccc(Nc2snc(O)c2C(=N)N2CCc3ccccc3C2)cc1 [Cpd 8] | > 500 | – | – |
| N=C(NCCCCO)c1c(O)nsc1Nc1ccc(Oc2ccccc2)cc1 [Cpd 9] | 1 to 100 | – | – |
| CCCCCCCNC(=N)c1c(O)nsc1Nc1ccc(Oc2ccccc2)cc1 [Cpd 10] | 1 to 100 | – | – |
| N=C(NC1CCCCC1)c1c(O)nsc1Nc1ccc(Oc2ccccc2)cc1 [Cpd 11] | 1 to 100 | – | – |
| N=C(NC1CCCC1)c1c(O)nsc1Nc1ccc(Oc2ccccc2)cc1 [Cpd 12] | 1 to 100 | – | – |
| N=C(NCCC1=CCCCC1)c1c(O)nsc1Nc1ccc(Oc2ccccc2)cc1 [Cpd 13] | 1 to 100 | – | – |
| N=C(NCCc1ccccc1)c1c(O)nsc1Nc1ccc(Oc2ccccc2)cc1 [Cpd 14] | 100 to 500 | – | – |
| CC(CNC(=N)c1c(O)nsc1Nc1ccc(Oc2ccccc2)cc1)c1ccccc1 (stereo not drawn) [Cpd 15] | 1 to 100 | – | – |
| N=C(NC1CCC1)c1c(O)nsc1Nc1ccc(Oc2ccccc2)cc1 [Cpd 16] | 1 to 100 | – | – |
| N=C(NCCc1cccc(F)c1)c1c(O)nsc1Nc1ccc(Oc2ccccc2)cc1 [Cpd 17] | 100 to 500 | – | – |
| N=C(NCCc1cccs1)c1c(O)nsc1Nc1ccc(Oc2ccccc2)cc1 [Cpd 18] | 100 to 500 | – | – |
| N=C(NCC1CC1)c1c(O)nsc1Nc1ccc(Oc2ccccc2)cc1 [Cpd 19] | 1 to 100 | – | – |
| N=C(NCc1ccccc1)c1c(O)nsc1Nc1ccc(Oc2ccccc2)cc1 [Cpd 20] | 100 to 500 | – | – |
| N=C(NCc1ccc(C(F)(F)F)cc1)c1c(O)nsc1Nc1ccc(Oc2ccccc2)cc1 [Cpd 21] | 1 to 100 | – | – |
| N=C(N[C@@H]1CC2CCC1C2)c1c(O)nsc1Nc1ccc(Oc2ccccc2)cc1 (stereo partly drawn) [Cpd 22] | 1 to 100 | – | – |
| N=C(NC1CCCCCC1)c1c(O)nsc1Nc1ccc(Oc2ccccc2)cc1 [Cpd 23] | 1 to 100 | – | – |

| Structure (SMILES) | IC50 [1] [nM] | IC50 [2] [nM] | other results |
| --- | --- | --- | --- |
| Cn1sc(Nc2ccc(Oc3ccccc3)cc2)c(C(=N)NC2CCCC2)c1=O [Cpd 24] | > 500 | – | – |
| N=C(NCC1CCCO1)c1c(O)nsc1Nc1ccc(Oc2ccccc2)cc1 (stereo not drawn) [Cpd 25] | 1 to 100 | – | – |
| N=C(NCCN1CCOCC1)c1c(Nc2ccc(Oc3ccccc3)cc2)s[nH]c1=O [Cpd 26] | > 500 | – | – |
| CCCCNC(=N)c1c(O)nsc1Nc1ccc(Oc2ccccc2)cc1 [Cpd 27] | 100 to 500 | – | – |
| CC(C)NC(=N)c1c(O)nsc1Nc1ccc(Oc2ccccc2)cc1 [Cpd 28] | 1 to 100 | – | – |
| CC(NC(=N)c1c(O)nsc1Nc1ccc(Oc2ccccc2)cc1)c1ccc(F)cc1 (stereo not drawn) [compound 29] | 100 to 500 | – | – |
| CCOC(=O)N1CCC(NC(=N)c2c(O)nsc2Nc2ccc(Oc3ccccc3)cc2)CC1 [compound 30] | 100 to 500 | – | – |
| N=C(NCCCO)c1c(O)nsc1Nc1ccc(Oc2ccccc2)cc1 [compound 31] | 1 to 100 | – | – |
| N=C(NCCCCCCO)c1c(O)nsc1Nc1ccc(Oc2ccccc2)cc1 [compound 32] | 1 to 100 | – | – |
| N=C(NCCO)c1c(O)nsc1Nc1ccc(Oc2ccccc2)cc1 [compound 33] | 1 to 100 | – | – |
| C[C@H](NC(=N)c1c(O)nsc1Nc1ccc(Oc2ccccc2)cc1)c1ccccc1 [compound 34] | 100 to 500 | – | – |
| CC(C)CC(C)NC(=N)c1c(O)nsc1Nc1ccc(Oc2ccccc2)cc1 (stereo not drawn) [compound 35] | 100 to 500 | – | – |
| N=C(NCCOc1ccccc1)c1c(O)nsc1Nc1ccc(Oc2ccccc2)cc1 [compound 36] | 100 to 500 | – | – |
| N=C(NCC1CCCCC1)c1c(O)nsc1Nc1ccc(Oc2ccccc2)cc1 [compound 37] | 1 to 100 | – | – |
| N=C(NCc1ccccn1)c1c(O)nsc1Nc1ccc(Oc2ccccc2)cc1 [compound 38] | 100 to 500 | – | – |
| N=C(NCCCN1CCCC1=O)c1c(O)nsc1Nc1ccc(Oc2ccccc2)cc1 [compound 39] | 1 to 100 | – | – |
| N=C(NCC(O)CO)c1c(O)nsc1Nc1ccc(Oc2ccccc2)cc1 (stereo not drawn) [compound 40] | 1 to 100 | – | – |
| CC(C)(C)CCNC(=N)c1c(O)nsc1Nc1ccc(Oc2ccccc2)cc1 [compound 41] | 100 to 500 | – | – |
| CC(C)(C)CCNC(=N)c1c(O)nsc1Nc1ccc(Oc2ccccc2)cc1 [compound 42] | 1 to 100 | – | – |
| CC(C)CCNC(=N)c1nsc(Nc2ccc(Oc3ccccc3)cc2)c1O [compound 43] | 1 to 100 | – | – |
| N=C(NC1CC1)c1c(O)nsc1Nc1ccc(Oc2ccccc2)cc1 [compound 44] | > 500 | – | – |
| N=C(NCc1cccc2ccccc12)c1c(O)nsc1Nc1ccc(Oc2ccccc2)cc1 [compound 45] | 1 to 100 | – | – |
| CC1(C)C2CCC1[C@H](CNC(=N)c1c(O)nsc1Nc1ccc(Oc3ccccc3)cc1)CC2 (stereo partly drawn) [compound 46] | 1 to 100 | – | – |
| CC1(C)OCC(CNC(=N)c2c(O)nsc2Nc2ccc(Oc3ccccc3)cc2)O1 (stereo not drawn) [compound 47] | 1 to 100 | – | – |

Continued, in another order:

| IC50 [1] [nM] | IC50 [2] [nM] | Structure (SMILES) | other results |
| --- | --- | --- | --- |
| – | > 1000 | N/C(=N\CC1CCCCC1)c1c(O)nsc1Nc1ccccc1C(=O)NCC1CCCCC1 [E-1] | – |
| – | > 1000 | N=C(NCC1CCCCC1)c1c(O)nsc1Nc1ccc(S(=O)(=O)Nc2ccccc2)cc1 [E-2] | – |
| – | > 1000 | N=C(NCC1CCCCC1)c1c(O)nsc1Nc1ccc(C(=O)Nc2ccccc2)cc1 [E-4] | – |
| – | > 1000 | CC(CO)NC(=N)c1c(O)nsc1Nc1ccc(C(=O)Nc2ccccc2)cc1 (stereo not drawn) [E-5] | – |
| – | > 1000 | N=C(NCCCCO)c1c(O)nsc1Nc1ccc(C(=O)Nc2ccccc2)cc1 [E-6] | – |
| – | > 1000 | CC(C)NC(=N)c1c(O)nsc1Nc1ccc(C(=O)Nc2ccccc2)cc1 [E-7] | – |
| – | 200 to 1000 | N=C(NCCO)c1c(O)nsc1Nc1ccc(C(=O)Nc2ccccc2)cc1 [E-8] | – |
| – | 200 to 1000 | CC(C)NC(=N)c1c(O)nsc1Nc1ccc(C(=O)NC(C)C)cc1 [E-9] | – |
| – | 1 to 200 | CC(C)NC(=N)c1c(O)nsc1Nc1ccc(C(=O)N2CCc3ccccc32)cc1 [E-10] | – |
| – | 1 to 200 | N=C(NCCCO)c1c(O)nsc1Nc1ccc(C(=O)N2CCc3ccccc32)cc1 [E-11] | – |
| – | 200 to 1000 | N=C(NCC(O)CO)c1c(O)nsc1Nc1ccc(C(=O)N2CCc3ccccc32)cc1 (stereo not drawn) [E-12] | – |
| – | > 1000 | N=C(NCCO)c1c(O)nsc1Nc1ccc(C(=O)N2CCc3ccccc32)cc1 [E-13] | – |
| – | > 1000 | N=C(NCCCCO)c1c(O)nsc1Nc1ccc(C(=O)N2CCc3ccccc32)cc1 [E-14] | – |
| – | > 1000 | N=C(NCCCCO)c1c(O)nsc1Nc1ccc(C(=O)NCCCCO)cc1 [E-15] | – |
| – | 1 to 200 | CC(CO)NC(=N)c1c(O)nsc1Nc1ccc(C(=O)N2CCc3ccccc32)cc1 (stereo not drawn) [E-16] | – |
| – | > 1000 | CC(CO)NC(=N)c1c(O)nsc1Nc1ccc(C(=O)N2CCN(C)CC2)cc1 (stereo not drawn) [E-17] | – |
| – | > 1000 | CN1CCN(C(=O)c2ccc(Nc3snc(O)c3C(=N)NCCO)cc2)CC1 [E-18] | – |
| – | > 1000 | CC(C)NC(=N)c1c(O)nsc1Nc1ccc(C(=O)N2CCN(C)CC2)cc1 [E-19] | – |
| – | 1 to 200 | N=C(N)c1c(O)nsc1Nc1ccc(C(=O)N2CCc3cc(Br)ccc32)cc1 [E-20] | – |
| – | 200 to 1000 | CNC(=N)c1c(O)nsc1Nc1ccc(C(=O)N2CCc3cc(Cl)ccc32)cc1 [E-21] | – |
| – | > 1000 | CNC(=N)c1c(O)nsc1Nc1ccc(C(=O)N2CCc3cc(F)ccc32)cc1 [E-22] | – |
